Source: the supplement of paper PMC11061612

How the values were obtained:
[1] = tested on: 22RV1 (Prostate Carcinoma); test: Bliss excess, mean over the matrix (fraction); higher = more synergy
In short: (§1)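 Bliss excess equals the observed combination effect minus the expected value EA + EB − EA·EB, where EA and EB are the effects of each agent alone. Combination Emax is the second-highest inhibition within the matrix. Inhibition was scaled from CellTiter-Glo 2.0 luminescence, with 0 set by vehicle wells and 1 by blank wells, after 72 hours of two-drug dosing of cells plated in 1536-well plates.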

[2] = tested on: NCI-H1651 (Lung Adenocarcinoma); test: as above
In short: as §1

[3] = tested on: EW-7 (Ewing's Sarcoma); test: as above
In short: as §1

[4] = tested on: NCI-H2087 (Lung Adenocarcinoma); test: as above
In short: as §1

[5] = tested on: KYSE-220 (Esophageal Squamous Cell Carcinoma); test: combination Emax (second highest fraction inhibited in the dose matrix, 72 h); higher = more inhibition; extreme values may be limits of the assay
In short: as §1

[6] = tested on: HCC1395 (Breast Carcinoma); test: as above
In short: as §1

[7] = tested on: IM-9 (Non-Cancerous); test: as above
In short: as §1

[8] = tested on: EB2 (Burkitt's Lymphoma); test: as above
In short: as §1

[9] = tested on: SW620 (Colorectal Carcinoma); test: as above
In short: as §1

[10] = tested on: A2780 (Ovarian Carcinoma); test: as above
In short: as §1

[11] = tested on: LU-165 (Small Cell Lung Carcinoma); test: as above
In short: as §1

[12] = tested on: WM1552C (Melanoma); test: as above
In short: as §1

[13] = tested on: NCI-H1703 (Squamous Cell Lung Carcinoma); test: as above
In short: as §1

[14] = tested on: 22RV1 (Prostate Carcinoma); test: as above
In short: as §1

[15] = tested on: MHH-ES-1 (Ewing's Sarcoma); test: as above
In short: as §1

[16] = tested on: SK-HEP-1 (Hepatocellular Carcinoma); test: as above
In short: as §1

[17] = tested on: EW-7 (Ewing's Sarcoma); test: as above
In short: as §1

[18] = tested on: PEO1 (Ovarian Carcinoma); test: as above
In short: as §1

[19] = tested on: HCC70 (Breast Carcinoma); test: as above
In short: as §1

[20] = tested on: CGTH-W-1 (Thyroid Gland Carcinoma); test: as above
In short: as §1

Compound | Bliss excess [1] | Bliss excess [2] | Bliss excess [3] | Bliss excess [4] | combination Emax [5] | combination Emax [6] | combination Emax [7] | combination Emax [8] | combination Emax [9] | combination Emax [10] | combination Emax [11] | combination Emax [12] | combination Emax [13] | combination Emax [14] | combination Emax [15] | combination Emax [16] | combination Emax [17] | combination Emax [18] | combination Emax [19] | combination Emax [20]
Cc1cc2ncnn2cc1Nc1ncc2c(n1)n(C1CCOCC1)c(=O)n2C [AZD7648] + CCN(CCO)CCCOc1ccc2c(Nc3cc(CC(=O)Nc4cccc(F)c4)[nH]n3)ncnc2c1 [AZD2811] (first compound max 10 µM, 7x7, partner max 1 µM) | -0.022 | 0.0404 | 0.043 | -0.0209 | 0.331 | 0.363 | 0.943 | 0.473 | 0.248 | 0.686 | 0.288 | 0.43 | 0.688 | 0.396 | 0.54 | 0.395 | 0.596 | 0.262 | 0.629 | 0.338
CN(CCO)CC[C@H](CSc1ccccc1)Nc1ccc(S(=O)(=O)NC(=O)c2ccc(N3CCC([C@@H](O)c4ccccc4-c4ccc(Cl)cc4)CC3)cc2)cc1S(=O)(=O)C(F)(F)F [AZD4320] + CC(=O)O[C@H]1C(=O)[C@@]2(C)[C@H]([C@H](OC(=O)c3ccccc3)[C@]3(O)C[C@H](OC(=O)[C@H](O)[C@@H](NC(=O)c4ccccc4)c4ccccc4)C(C)=C1C3(C)C)[C@]1(OC(C)=O)CO[C@@H]1C[C@@H]2O [Paclitaxel] (first compound max 1 µM, 7x7, partner max 3 µM) | -0.0017 | -0.0099 | 0.132 | 0.13 | 0.793 | 0.838 | 1 | 0.802 | 1 | 0.946 | 0.88 | 0.941 | 0.976 | 0.845 | 1 | 0.952 | 1 | 0.852 | 0.875 | 0.881
Cc1cc2ncnn2cc1Nc1ncc2c(n1)n(C1CCOCC1)c(=O)n2C [AZD7648] + CN(C)CCCOc1ccc(-c2ccc3ncc4c(c3c2)n(C2CCOCC2)c(=O)n4C)cn1 [AZD0156] (first compound max 10 µM, 7x7, partner max 1 µM) | -0.0334 | 0.0089 | -0.03 | -0.0115 | 0.27 | 0.366 | 0.456 | 0.484 | 0.229 | 0.609 | 0.346 | 0.29 | 0.521 | 0.468 | 0.269 | 0.23 | 0.682 | 0.184 | 0.3 | 0.228
CN(CCO)CC[C@H](CSc1ccccc1)Nc1ccc(S(=O)(=O)NC(=O)c2ccc(N3CCC([C@@H](O)c4ccccc4-c4ccc(Cl)cc4)CC3)cc2)cc1S(=O)(=O)C(F)(F)F [AZD4320] + CCN(CCO)CCCOc1ccc2c(Nc3cc(CC(=O)Nc4cccc(F)c4)[nH]n3)ncnc2c1 [AZD2811] (first compound max 1 µM, 7x7, partner max 1 µM) | -0.0342 | -0.0013 | 0.126 | 0.0018 | 0.196 | 0.309 | 1 | 0.338 | 0.946 | 0.49 | 0.486 | 0.481 | 0.473 | 0.259 | 0.924 | 0.793 | 0.817 | 0.454 | 0.66 | 0.292
CN(CCO)CC[C@H](CSc1ccccc1)Nc1ccc(S(=O)(=O)NC(=O)c2ccc(N3CCC([C@@H](O)c4ccccc4-c4ccc(Cl)cc4)CC3)cc2)cc1S(=O)(=O)C(F)(F)F [AZD4320] + Cn1cnc2c(F)c(Nc3ccc(Br)cc3Cl)c(C(=O)NOCCO)cc21 [Selumetinib] (first compound max 1 µM, 7x7, partner max 3 µM) | 0.136 | 0.0238 | 0.0295 | 0.0142 | 0.505 | 0.281 | 1 | 0.377 | 0.942 | 0.512 | 0.748 | 0.558 | 0.298 | 0.453 | 0.951 | 0.603 | 0.968 | 0.582 | 0.7 | 0.342
COc1nnc2ccc(N3CCC(c4ccc(OCCN5CCN(C)C(=O)[C@H]5C)cc4)CC3)nn12 [AZD5153] + CN(CC[C@H](CSC1=CC=CC=C1)NC2=C(C=C(C=C2)S(=O)(=O)NC(=O)C3=CC=C(C=C3)N4CCC(CC4)[C@H](C5=CC=CC=C5C6=CC=C(C=C6)Cl)O)S(=O)(=O)C(F)(F)F)CCO [AZD4320] (first compound max 1 µM, 7x7, partner max 1 µM) | – | – | – | – | – | – | – | – | 0.84 | – | – | – | – | – | 0.74 | – | – | – | – | –
CN(CCO)CC[C@H](CSc1ccccc1)Nc1ccc(S(=O)(=O)NC(=O)c2ccc(N3CCC([C@@H](O)c4ccccc4-c4ccc(Cl)cc4)CC3)cc2)cc1S(=O)(=O)C(F)(F)F [AZD4320] + C1CN(CCC1(C(=O)N[C@@H](CCO)C2=CC=C(C=C2)Cl)N)C3=NC=NC4=C3C=CN4 [Capivasertib] (first compound max 1 µM, 7x7, partner max 3 µM) | -0.0486 | -0.0005 | 0.0586 | -0.0696 | 0.237 | 0.408 | 0.586 | 0.534 | 0.137 | 0.515 | 0.581 | 0.183 | 0.402 | 0.471 | 0.48 | 0.245 | 0.861 | 0.432 | 0.813 | 0.19
CN(CCO)CC[C@H](CSc1ccccc1)Nc1ccc(S(=O)(=O)NC(=O)c2ccc(N3CCC([C@@H](O)c4ccccc4-c4ccc(Cl)cc4)CC3)cc2)cc1S(=O)(=O)C(F)(F)F [AZD4320] + C=CCn1c(=O)c2cnc(Nc3ccc(N4CCN(C)CC4)cc3)nc2n1-c1cccc(C(C)(C)O)n1 [AZD1775] (first compound max 1 µM, partner max 1 µM) | -0.0487 | 0.0154 | 0.14 | 0.0088 | 0.795 | 0.69 | 1 | 0.866 | 0.931 | 0.666 | 0.681 | 0.471 | 0.972 | 0.321 | 0.947 | 0.327 | 1 | 0.529 | 0.607 | 0.106
N#Cc1cnc(Nc2cc(NC[C@H]3CNCCO3)c(C(F)(F)F)cn2)cn1 [SRA737] + CCc1c2c(nc3ccc(O)cc13)-c1cc3c(c(=O)n1C2)COC(=O)[C@]3(O)CC [SN-38] (first compound max 10 µM, 7x7, partner max 0.3 µM) | -0.0792 | -0.0101 | -0.0597 | 0.0137 | 0.905 | 0.766 | 1 | 0.929 | 0.955 | 0.85 | 0.647 | 0.638 | 0.929 | 0.685 | 0.975 | 0.802 | 0.976 | 0.746 | 0.674 | 0.701
C[C@@H](c1ccc2nccn2c1)n1nnc2ncc(-c3cnn(C)c3)nc21 [Savolitinib] + Cc1c2c(nn1C)CSCc1cc(n(C)n1)CSc1cc(c3ccccc3c1)OCCCc1c(C(=O)O)n(C)c3c-2c(Cl)ccc13 [AZD5991] (first compound max 1 µM, 7x7, partner max 1 µM) | -0.0204 | -0.0358 | -0.0336 | 0.0097 | 0.164 | 0.478 | 0.573 | 0.208 | 0.167 | 0.499 | 0.213 | 0.554 | 0.852 | 0.34 | 0.38 | 0.237 | 0.133 | 0.218 | 0.844 | 0.173
CN(CCO)CC[C@H](CSc1ccccc1)Nc1ccc(S(=O)(=O)NC(=O)c2ccc(N3CCC([C@@H](O)c4ccccc4-c4ccc(Cl)cc4)CC3)cc2)cc1S(=O)(=O)C(F)(F)F [AZD4320] + C[C@@H]1COCCN1C2=NC(=NC(=C2)C3(CC3)[S@](=N)(=O)C)C4=C5C=CNC5=NC=C4 [AZD6738] (first compound max 1 µM, 7x7, partner max 10 µM) | -0.133 | 0.0261 | 0.0835 | 0.0149 | 0.877 | 0.819 | 1 | 0.835 | 0.793 | 0.799 | 0.776 | 0.73 | 0.892 | 0.624 | 0.85 | 0.411 | 1 | 0.686 | 0.845 | 0.424
CC(=O)c1c(C)c2cnc(Nc3ccc(N4CCNCC4)cn3)nc2n(C2CCCC2)c1=O [Palbociclib] + CN(CC[C@H](CSC1=CC=CC=C1)NC2=C(C=C(C=C2)S(=O)(=O)NC(=O)C3=CC=C(C=C3)N4CCC(CC4)[C@H](C5=CC=CC=C5C6=CC=C(C=C6)Cl)O)S(=O)(=O)C(F)(F)F)CCO [AZD4320] (first compound max 10 µM, 7x7, partner max 1 µM) | – | – | – | – | – | – | – | – | 0.693 | – | – | – | – | – | 0.835 | – | – | – | – | –
C[C@@H](c1ccc2nccn2c1)n1nnc2ncc(-c3cnn(C)c3)nc21 [Savolitinib] + CN(CC[C@H](CSC1=CC=CC=C1)NC2=C(C=C(C=C2)S(=O)(=O)NC(=O)C3=CC=C(C=C3)N4CCC(CC4)[C@H](C5=CC=CC=C5C6=CC=C(C=C6)Cl)O)S(=O)(=O)C(F)(F)F)CCO [AZD4320] (first compound max 1 µM, 7x7, partner max 1 µM) | – | – | – | – | – | – | – | – | 0.207 | – | – | – | – | – | 0.404 | – | – | – | – | –
